SMILES strings stand for the structures.

Among the data in publication PMC5945292 (Biochemistry, 2013) are Kd values, retold here.

Type in all cases: binding
Assay [1] deals with T1, cytochrome P450 BM-3 (Priestia megaterium, UniProt P14779).
T1 sequence (P14779 1-1049): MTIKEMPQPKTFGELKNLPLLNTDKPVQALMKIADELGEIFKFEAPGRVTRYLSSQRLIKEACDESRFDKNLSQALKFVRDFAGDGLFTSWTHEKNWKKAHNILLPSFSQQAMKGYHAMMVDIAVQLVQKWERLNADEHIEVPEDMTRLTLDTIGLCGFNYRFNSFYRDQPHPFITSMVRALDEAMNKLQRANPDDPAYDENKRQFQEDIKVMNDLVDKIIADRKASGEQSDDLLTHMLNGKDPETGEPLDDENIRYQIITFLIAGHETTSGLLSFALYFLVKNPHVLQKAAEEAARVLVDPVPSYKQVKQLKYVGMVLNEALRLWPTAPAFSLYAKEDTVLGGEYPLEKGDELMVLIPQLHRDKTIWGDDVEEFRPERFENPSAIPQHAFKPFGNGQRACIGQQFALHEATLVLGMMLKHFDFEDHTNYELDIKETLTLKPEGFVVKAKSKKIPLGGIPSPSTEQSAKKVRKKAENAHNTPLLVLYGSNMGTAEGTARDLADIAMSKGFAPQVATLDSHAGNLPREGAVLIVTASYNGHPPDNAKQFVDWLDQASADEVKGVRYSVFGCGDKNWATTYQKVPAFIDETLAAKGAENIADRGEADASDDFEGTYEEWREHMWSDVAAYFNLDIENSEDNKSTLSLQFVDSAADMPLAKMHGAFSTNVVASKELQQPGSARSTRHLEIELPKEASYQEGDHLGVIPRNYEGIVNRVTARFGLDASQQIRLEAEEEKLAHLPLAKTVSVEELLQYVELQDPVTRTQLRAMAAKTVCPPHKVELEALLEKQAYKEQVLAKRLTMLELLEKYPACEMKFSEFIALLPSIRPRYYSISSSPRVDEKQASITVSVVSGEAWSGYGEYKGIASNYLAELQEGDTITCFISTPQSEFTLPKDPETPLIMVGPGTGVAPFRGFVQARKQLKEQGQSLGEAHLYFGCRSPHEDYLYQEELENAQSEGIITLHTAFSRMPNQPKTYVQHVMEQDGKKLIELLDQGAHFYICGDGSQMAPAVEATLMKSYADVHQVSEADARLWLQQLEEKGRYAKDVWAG
Nature of the assay: crystal structure at […] Å.

Assay [2] addresses cytochrome P450 BM-3 (Priestia megaterium, UniProt P14779, R48K). Nature of the assay: spectral.
Assay [3] addresses cytochrome P450 BM-3 (Priestia megaterium, UniProt P14779, R48Q). Put plainly: spectral.

Chain of cytochrome P450 BM-3 (Priestia megaterium, UniProt P14779, R48K) (P14779 whole entry R48K): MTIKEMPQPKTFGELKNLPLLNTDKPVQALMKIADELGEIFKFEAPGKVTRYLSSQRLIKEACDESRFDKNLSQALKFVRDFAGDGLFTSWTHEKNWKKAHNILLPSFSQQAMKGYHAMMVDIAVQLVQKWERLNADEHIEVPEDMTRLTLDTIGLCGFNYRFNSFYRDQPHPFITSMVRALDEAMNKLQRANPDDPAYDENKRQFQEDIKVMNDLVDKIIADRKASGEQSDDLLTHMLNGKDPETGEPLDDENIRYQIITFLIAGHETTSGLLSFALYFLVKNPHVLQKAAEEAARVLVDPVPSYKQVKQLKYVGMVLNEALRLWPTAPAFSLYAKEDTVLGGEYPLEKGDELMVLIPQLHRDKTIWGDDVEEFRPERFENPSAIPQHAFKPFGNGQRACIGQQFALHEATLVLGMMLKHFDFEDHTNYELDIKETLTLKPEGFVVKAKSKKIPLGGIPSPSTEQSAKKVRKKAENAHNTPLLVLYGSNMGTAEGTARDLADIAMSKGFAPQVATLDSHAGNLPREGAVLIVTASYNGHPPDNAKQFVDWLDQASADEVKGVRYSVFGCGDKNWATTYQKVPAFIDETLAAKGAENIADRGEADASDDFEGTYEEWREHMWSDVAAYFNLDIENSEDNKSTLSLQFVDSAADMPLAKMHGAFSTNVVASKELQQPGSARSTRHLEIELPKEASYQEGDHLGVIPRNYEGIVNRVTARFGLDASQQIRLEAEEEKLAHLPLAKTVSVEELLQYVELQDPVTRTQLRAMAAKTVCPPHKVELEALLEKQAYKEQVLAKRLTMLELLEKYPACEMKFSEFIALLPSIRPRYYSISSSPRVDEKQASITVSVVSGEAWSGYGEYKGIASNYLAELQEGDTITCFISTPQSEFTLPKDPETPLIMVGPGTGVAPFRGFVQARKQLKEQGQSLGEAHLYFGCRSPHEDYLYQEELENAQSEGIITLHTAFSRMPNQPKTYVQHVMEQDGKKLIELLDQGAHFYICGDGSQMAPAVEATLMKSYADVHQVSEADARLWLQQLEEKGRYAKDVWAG
Chain of cytochrome P450 BM-3 (Priestia megaterium, UniProt P14779, R48Q) (P14779 whole entry R48Q): as the sequence (P14779 whole entry R48K) above, with K48Q counted along it

As to `CCCCCCCCCCCCCCCC(=O)NCC(=O)O` [NPG, N-palmitoylglycine], the Kd in assay [1] stood at 370 ± 50 nM; in assay [2] it was 1200 ± 100 nM; in assay [3], 7000 ± 700 nM.

As a reminder, the Kd is a measure of binding affinity in units of concentration. High values mean weaker binding, low ones tighter binding.
